According to PubChem BioAssay (NCI):
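48-hour exposure; five concentrations; linearly interpolated endpoints. TGI: total growth inhibition.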

Legend:
Assay in all cases: NCI-60 cell line screen, 48 h
OVCAR-5 ovarian = test system: OVCAR-5 ovarian
HOP-62 NSCLC = test system: HOP-62 NSCLC
OVCAR-8 ovarian = test system: OVCAR-8 ovarian
HCC-2998 colon = test system: HCC-2998 colon
RXF 393 renal = test system: RXF 393 renal
NCI-H226 lung = test system: NCI-H226 lung
DMS 273 small cell lung = test system: DMS 273 small cell lung
HCT-15 colon = test system: HCT-15 colon
HOP-18 NSCLC = test system: HOP-18 NSCLC
SR leukemia = test system: SR leukemia
RXF-631 renal = test system: RXF-631 renal
SK-MEL-28 melanoma = test system: SK-MEL-28 melanoma
ACHN renal = test system: ACHN renal
NCI-H460 lung = test system: NCI-H460 lung
M19-MEL melanoma = test system: M19-MEL melanoma
EKVX NSCLC = test system: EKVX NSCLC
MOLT-4 leukemia = test system: MOLT-4 leukemia
NCI-H522 lung = test system: NCI-H522 lung
SNB-19 CNS = test system: SNB-19 CNS
LOX IMVI melanoma = test system: LOX IMVI melanoma
SF-268 CNS = test system: SF-268 CNS
KM20L2 colon = test system: KM20L2 colon
SK-MEL-5 melanoma = test system: SK-MEL-5 melanoma
HL-60(TB) leukemia = test system: HL-60(TB) leukemia
CCRF-CEM leukemia = test system: CCRF-CEM leukemia
RPMI-8226 leukemia = test system: RPMI-8226 leukemia
A498 renal = test system: A498 renal
SN12C renal = test system: SN12C renal
SW-620 colon = test system: SW-620 colon
OVCAR-3 ovarian = test system: OVCAR-3 ovarian
UACC-257 melanoma = test system: UACC-257 melanoma
HOP-92 NSCLC = test system: HOP-92 NSCLC
DLD-1 colon = test system: DLD-1 colon
SNB-78 CNS = test system: SNB-78 CNS
IGROV1 ovarian = test system: IGROV1 ovarian
SNB-75 CNS = test system: SNB-75 CNS
MALME-3M melanoma = test system: MALME-3M melanoma
SF-295 CNS = test system: SF-295 CNS
KM12 colon = test system: KM12 colon
COLO 205 colon = test system: COLO 205 colon
UO-31 renal = test system: UO-31 renal
A549 NSCLC = test system: A549 NSCLC
CAKI-1 renal = test system: CAKI-1 renal
NCI-H23 lung = test system: NCI-H23 lung
HT29 colon = test system: HT29 colon
XF 498 CNS = test system: XF 498 CNS
U251 CNS = test system: U251 CNS
M14 melanoma = test system: M14 melanoma
786-0 renal = test system: 786-0 renal
DMS 114 small cell lung = test system: DMS 114 small cell lung
UACC-62 melanoma = test system: UACC-62 melanoma
LXFL 529 NSCLC = test system: LXFL 529 NSCLC
TK-10 renal = test system: TK-10 renal
HCT-116 colon = test system: HCT-116 colon
SK-MEL-2 melanoma = test system: SK-MEL-2 melanoma
SK-OV-3 ovarian = test system: SK-OV-3 ovarian
K-562 leukemia = test system: K-562 leukemia
OVCAR-4 ovarian = test system: OVCAR-4 ovarian
SF-539 CNS = test system: SF-539 CNS

CCSc1nnc(CSc2nc(-c3ccccc3)c(-c3ccccc3)[nH]2)n1-c1ccccc1
TGI (OVCAR-5 ovarian): 30.4 µM | TGI (HOP-62 NSCLC): 35.2 µM | TGI (OVCAR-8 ovarian): 51.9 µM | TGI (HCC-2998 colon): 36.5 µM | TGI (RXF 393 renal): 43.5 µM | TGI (NCI-H226 lung): 27.7 µM | TGI (DMS 273 small cell lung): 66.3 µM | TGI (HCT-15 colon): 36 µM | TGI (HOP-18 NSCLC): 30.4 µM | TGI (SR leukemia): 48.5 µM | TGI (RXF-631 renal): 63.3 µM | TGI (SK-MEL-28 melanoma): 37 µM | TGI (ACHN renal): 33.4 µM | TGI (NCI-H460 lung): 36.9 µM | TGI (M19-MEL melanoma): 33.3 µM | TGI (EKVX NSCLC): 63.5 µM | TGI (MOLT-4 leukemia): 40 µM | TGI (NCI-H522 lung): 30.5 µM | TGI (SNB-19 CNS): 34.2 µM | TGI (LOX IMVI melanoma): 43.8 µM | TGI (SF-268 CNS): 43.3 µM | TGI (KM20L2 colon): 32.1 µM | TGI (SK-MEL-5 melanoma): 30.9 µM | TGI (HL-60(TB) leukemia): 45.5 µM | TGI (CCRF-CEM leukemia): 49.4 µM | TGI (RPMI-8226 leukemia): 46.1 µM | TGI (A498 renal): 34.6 µM | TGI (SN12C renal): 29.7 µM | TGI (SW-620 colon): 30.2 µM | TGI (OVCAR-3 ovarian): 35.2 µM | TGI (UACC-257 melanoma): 33.6 µM | TGI (HOP-92 NSCLC): 38.5 µM | TGI (DLD-1 colon): 37 µM | TGI (SNB-78 CNS): > 100 µM | TGI (IGROV1 ovarian): 42.3 µM | TGI (SNB-75 CNS): 42.9 µM | TGI (MALME-3M melanoma): 44.2 µM | TGI (SF-295 CNS): 44.7 µM | TGI (KM12 colon): 32.1 µM | TGI (COLO 205 colon): 29.5 µM | TGI (UO-31 renal): 33 µM | TGI (A549 NSCLC): 80.9 µM | TGI (CAKI-1 renal): 63.7 µM | TGI (NCI-H23 lung): 40.8 µM | TGI (HT29 colon): 35.4 µM | TGI (XF 498 CNS): 35.3 µM | TGI (U251 CNS): 31.7 µM | TGI (M14 melanoma): 34.9 µM | TGI (786-0 renal): 45.7 µM | TGI (DMS 114 small cell lung): 39.1 µM | TGI (UACC-62 melanoma): 30.2 µM | TGI (LXFL 529 NSCLC): 67 µM | TGI (TK-10 renal): 57.1 µM | TGI (HCT-116 colon): 36.2 µM | TGI (SK-MEL-2 melanoma): 45.6 µM | TGI (SK-OV-3 ovarian): 60.8 µM | TGI (K-562 leukemia): 56.3 µM

CCOC(=O)C1=C(C)N(c2ccccc2)C2=C(C(=O)N(c3ccccc3)C2c2ccccc2)C1c1ccccc1 (centres undefined)
TGI (OVCAR-5 ovarian): > 100 µM | TGI (HOP-62 NSCLC): > 100 µM | TGI (OVCAR-8 ovarian): > 100 µM | TGI (HCC-2998 colon): > 100 µM | TGI (RXF 393 renal): > 100 µM | TGI (NCI-H226 lung): > 100 µM | TGI (DMS 273 small cell lung): > 100 µM | TGI (HOP-18 NSCLC): > 100 µM | TGI (SR leukemia): > 100 µM | TGI (RXF-631 renal): > 100 µM | TGI (SK-MEL-28 melanoma): > 100 µM | TGI (ACHN renal): > 100 µM | TGI (NCI-H460 lung): > 100 µM | TGI (M19-MEL melanoma): > 100 µM | TGI (EKVX NSCLC): > 100 µM | TGI (MOLT-4 leukemia): > 100 µM | TGI (NCI-H522 lung): > 100 µM | TGI (SNB-19 CNS): > 100 µM | TGI (LOX IMVI melanoma): > 100 µM | TGI (SF-268 CNS): > 100 µM | TGI (KM20L2 colon): > 100 µM | TGI (OVCAR-4 ovarian): > 100 µM | TGI (SK-MEL-5 melanoma): > 100 µM | TGI (HL-60(TB) leukemia): > 100 µM | TGI (CCRF-CEM leukemia): > 100 µM | TGI (RPMI-8226 leukemia): > 100 µM | TGI (SN12C renal): > 100 µM | TGI (SW-620 colon): > 100 µM | TGI (OVCAR-3 ovarian): > 100 µM | TGI (UACC-257 melanoma): > 100 µM | TGI (HOP-92 NSCLC): > 100 µM | TGI (DLD-1 colon): > 100 µM | TGI (SNB-78 CNS): > 100 µM | TGI (SF-539 CNS): > 100 µM | TGI (IGROV1 ovarian): > 100 µM | TGI (SNB-75 CNS): > 100 µM | TGI (MALME-3M melanoma): > 100 µM | TGI (SF-295 CNS): > 100 µM | TGI (KM12 colon): > 100 µM | TGI (COLO 205 colon): > 100 µM | TGI (UO-31 renal): > 100 µM | TGI (A549 NSCLC): > 100 µM | TGI (CAKI-1 renal): > 100 µM | TGI (NCI-H23 lung): > 100 µM | TGI (HT29 colon): > 100 µM | TGI (XF 498 CNS): > 100 µM | TGI (U251 CNS): > 100 µM | TGI (M14 melanoma): > 100 µM | TGI (786-0 renal): > 100 µM | TGI (DMS 114 small cell lung): > 100 µM | TGI (UACC-62 melanoma): > 100 µM | TGI (LXFL 529 NSCLC): > 100 µM | TGI (TK-10 renal): > 100 µM | TGI (HCT-116 colon): > 100 µM | TGI (SK-MEL-2 melanoma): > 100 µM | TGI (SK-OV-3 ovarian): > 100 µM | TGI (K-562 leukemia): > 100 µM
